Measured values reported in patent US20080071116A1, “Modulators of Lysophosphatidic Acid (Lpa) Signaling and the Use Thereof” (THE BOARD OF REGENTS OF THE UNIVERSITY OF TEXAS SYSTEM, priority 2004, published 2008).

Key:
[1] = target: T1, S1P3 receptor (Homo sapiens, UniProt Q99500); assay: GTP[γ-35S] binding assay, HEK293 T membranes, S1P3 control; type: biochemical; conditions: cells transfected with S1P3, negative control, FIG. 59D
T1 construct: expressed in transfected cells; host or cells: HEK293 T cells (crude microsomal membranes)
Experimental: (§1) OMPT also enhances GTP [γ-^35S] binding in the cell membrane of HEK293 T cells expressing LPA3. The procedures for these GTP [γ-^35S] binding assays involve co-transfection of HEK293 T cells with expression vectors encoding one of the receptors for LPA (LPA1, LPA2, or LPA3) or S1P (S1P3/Edg3) by calcium phosphate precipitation, together with plasmids encoding three G proteins (rat Gi2α, cow β1, and cow γ2). After about 48 hours, cells were harvested and crude microsomal membranes were prepared. Membranes containing about 5 μg of protein were incubated in 0.1 ml of GTP-binding buffer (50 mM Hepes, 100 mM NaCl, 10 mM MgCl2, pH7.5) having 5 μg of saponin, 0.1% fatty acid-free BSA, 10 μM GDP, 0.1 nM GTP[γ-^35S] (1200 Ci/mmole) together with indicated concentrations of LPA or OMPT for about 30 min at 30° C. Membranes were collected using a 96-well Brandel Cell Harvester (Gaithersburg, Md.), and bound radionuclide was determined using a Packard TopCount liquid scintillation counter.

[2] = tested on: vasodilator-stimulated protein (VASP); assay: VASP phosphorylation in PC-3 cells; type: cell-based, human
Experimental: (§2) The cells were then lysed in SDA sample buffer or ice-cold X-100 lysis buffer (1% Triton X-100, 50 mM HEPES [pH7.4], 150 mM NaCl, 1.5 mM MgCl2, 1 mM EGTA, 10% glycerol, 100 mM NaF, 10 mM Na pyrophosphate, and 1 mM aprotinin). Total cellular protein was resolved by SDS/PAGE, transferred to immobilon [poly (vinylidene difluoride)], and immunoblotted with antibodies following the protocols provided by manufactures. Immunocomplexes were visualized with an enhanced chemiluminescence detection kit (Amersham Pharmacia) using horseradish peroxidase-conjugated secondary antibodies (Bio-Rad).
To determine the mechanisms regulating LPA-induced cell migration, actin filament binding proteins that link receptor signaling to lamellipodia formation were evaluated.

[3] = target: T2, LPA1 receptor (Homo sapiens, UniProt Q92633); assay: HA-Erk1 phosphorylation in HEK 293 T cells transfected with LPA1; type: cell-based; design: FLAG; expressed in transfected cells; host or cells: HEK 293 T cells; conditions: LPA1 transfected HEK 293 T; 0.01, 0.1, or 1 μM
Source text: (§3) We have also tested kinase activation by the LPA3 receptor subtype using OMPT as a tool. We determined whether activation of the LPA3 receptor by OMPT can be linked to ERK activation (related to MAP kinase signaling pathway) in mammalian cells, HEK 293 T cells, by co-transfecting hemagglutinin (HA)-tagged Erk1 (HA-Erk1) with either a control vector or an expression vector having LPA1, LPA2, or LPA3. […] There is no phosphorylation of HA-Erk1 at lower concentration of LPA or OMPT in the absence of LPA receptors. […] Thus, the data confirmed that OMPT, an LPA derivative, is a selective agonist for LPA3 receptor subtype, capable of inducing MAPK activation.

[4] = tested on: OVCAR3 cells; assay: calcium mobilization assay in ovarian cancer OVCAR3 cells; type: cell-based, human; conditions: Homo sapiens, OVCAR-3; OVCAR3 cells; 95% confidence about 7.0 to about 11.5 nM
Experimental: (§4) The procedures for these calcium mobilization assays are as followed: OVCAR3 cells and PC-3 cells were cultured in RPMI 1640 medium with 10% FBS (fetal bovine serum). HT29 cells were cultured in DMEM (high glucose) medium with 10% FBS. All cells were cultured at about 37° C. in a humidified atmosphere with 5% CO2. After starvation in serum-free medium for about 12-24 hours, cells were harvested and loaded with about 1 μM of Indo-1 AM in serum-free medium for about 45 min at 37° C. Cells were washed in PBS and resuspended at 2×10^6 cells/ml in a [Ca^2+]i assay buffer (Sodium chloride, NaCl, about 140 mM, potassium chloride, KCl, about 2 mM, magnesium chloride, MgCl2, about 1 mM, calcium chloride, CaCl2, about 2 mM, in about 25 mM HEPES buffer at pH 7.4 with about 10 mM of glucose). Cytoplasmic [Ca^2+]i was determined at an excitation wavelength of about 331 nm and an emission wavelength of 410 nm using a fluorescence spectrophotometer (Hitachi, F-4000). Approximately 3×10^6 cells were used for [Ca^2+]l determination in a stirred quartz cuvette kept at about 37° C. OMPT or 18:1 LPA was dissolved in about 0.1% BSA/PBS solution and applied immediately to the cells. To test other LPA derivatives of the invention, cells were exposed to the derivatives for about 3 minutes or for a period of various times in time course related experiments before a LPA agonist, such as 18:1 LPA, OMPT, or other LPAs was applied into the cuvette.
(§5) The concentration of calcium mobilization giving the half-maximal response (EC50) was obtained from the concentration-response curve fitted to a sigmoidal logistic equation, with the maximal calcium response set to 100% using the GraphPad Prism. Maximal response value is expressed as mean +/−s.e.m. EC50 value is expressed with 95% confidence.

[5] = tested on: HT29 cells; assay: calcium mobilization assay in colon cancer HT29 cells; type: cell-based; conditions: HT29 cells
Experimental: as §4, §5

[6] = target: T2, LPA1 receptor; assay: calcium mobilization in Sf9 insect cells expressing LPA1; type: cell-based
[7] = tested on: ERK1/2; assay: ERK1/2 (p42/p44-MAPK) phosphorylation immunoblot in prostate cancer cells; type: cell-based, human; conditions: PC-3 and DU145 cells
Experimental: as §2

[8] = target: T2, LPA1 receptor; assay: GTP[γ-35S] binding assay, HEK293 T membranes, LPA1; type: biochemical; design: expressed in transfected cells; host or cells: HEK293 T cells (crude microsomal membranes); conditions: HEK293 transfected with LPA1, FIG. 59A
Experimental: as §1

[9] = target: LPA2 receptor (Homo sapiens, UniProt Q9HBW0); assay: HA-Erk1 phosphorylation in HEK 293 T cells transfected with LPA2; type: cell-based; design: expressed in transfected cells; conditions: LPA2 transfected HEK 293 T; 0.01, 0.1, or 1 μM
Source text: as §3

[10] = tested on: AKT; assay: AKT phosphorylation immunoblot in prostate cancer cells; type: cell-based, human; conditions: PC-3 and DU145 cells
Experimental: as §2

[11] = tested on: PKA; assay: PKA activation in PC-3 cells; type: cell-based, human

T2 sequence (Q92633 whole entry): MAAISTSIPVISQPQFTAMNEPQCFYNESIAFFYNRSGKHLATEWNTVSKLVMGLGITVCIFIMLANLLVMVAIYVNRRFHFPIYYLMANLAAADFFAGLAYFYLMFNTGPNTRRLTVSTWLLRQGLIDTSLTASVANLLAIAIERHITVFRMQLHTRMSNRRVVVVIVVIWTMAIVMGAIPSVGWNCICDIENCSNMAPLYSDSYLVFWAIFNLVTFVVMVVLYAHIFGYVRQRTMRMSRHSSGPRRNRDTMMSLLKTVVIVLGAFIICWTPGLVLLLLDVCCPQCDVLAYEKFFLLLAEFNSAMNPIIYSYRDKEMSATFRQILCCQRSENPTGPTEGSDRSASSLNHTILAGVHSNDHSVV
T1 sequence (Q99500 whole entry): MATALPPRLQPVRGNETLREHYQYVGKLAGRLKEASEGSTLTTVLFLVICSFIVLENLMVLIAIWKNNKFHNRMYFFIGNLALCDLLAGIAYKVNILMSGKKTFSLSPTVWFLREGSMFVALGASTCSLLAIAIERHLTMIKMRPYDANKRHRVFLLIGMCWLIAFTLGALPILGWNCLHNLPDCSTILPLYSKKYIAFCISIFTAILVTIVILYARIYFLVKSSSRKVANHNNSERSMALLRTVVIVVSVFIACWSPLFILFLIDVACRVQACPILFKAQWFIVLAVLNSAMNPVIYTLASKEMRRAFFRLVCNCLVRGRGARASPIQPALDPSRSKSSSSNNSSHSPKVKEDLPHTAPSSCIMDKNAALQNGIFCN
Chain of LPA2 receptor (Q9HBW0 whole entry): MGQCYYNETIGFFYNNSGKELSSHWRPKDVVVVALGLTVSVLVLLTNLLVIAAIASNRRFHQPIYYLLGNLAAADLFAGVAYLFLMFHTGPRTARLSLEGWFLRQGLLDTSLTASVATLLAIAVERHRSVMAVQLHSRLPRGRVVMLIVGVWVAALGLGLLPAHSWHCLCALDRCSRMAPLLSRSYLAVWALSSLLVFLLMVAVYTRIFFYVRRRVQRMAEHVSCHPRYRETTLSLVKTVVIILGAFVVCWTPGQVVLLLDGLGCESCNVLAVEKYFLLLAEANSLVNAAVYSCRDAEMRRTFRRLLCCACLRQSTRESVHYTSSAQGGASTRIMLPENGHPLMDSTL

Compound: CCCCCCCC/C=C\CCCCCCCC(=O)OCC(COP(O)(O)=S)OC (racemic) [OMPT, 1-oleoyl-sn2-O-methyl-rac-glycero-3-phosphothionate]
- activation in GTP[γ-35S] binding assay [1]: does not activate
- induction of VASP phosphorylation at Ser157 PKA site [2]: Neither OMPT nor EGF increased phosphorylation of VASP
- HA-Erk1 phosphorylation [3]: did not increase HA-Erk1 phosphorylation
- EC50 [4]: ~9 nM
- stimulation of calcium mobilization ([5]; FIG. 3): but not OMPT, stimulates calcium mobilization
- EC50 ([5]; Homo sapiens, HT-29): < 1000 nM
- EC50 [6]: > 10000 nM
- activation of p42/p44-MAPK [7]: efficiently activates
- activation in GTP[γ-35S] binding assay [8]: does not activate
- HA-Erk1 phosphorylation [9]: did not increase HA-Erk1 phosphorylation
- activation of AKT [10]: efficiently activates
- activation of PKA [11]: does not
